From patent EP2589383A1 (Max-Planck-Gesellschaft zur Förderung der Wissenschaften …, priority 2011, dated 2013)

Molecular target: T1, FLAG-mTOR (Homo sapiens, UniProt P42345)
T1 construct: expressed in transfected cells; host or cells: HEK-293
Test: Co-immunoprecipitation of FLAG-mTOR and endogenous FKBPs in HEK-293 cells
Format: cell-based
Details: overexpressed mTOR, 25 nM, 30 minutes prior to lysis
Experimental: Next mammalian cells were analyzed for a rapamycin-mediated interaction of mTOR and FKBPs. Co-Immunoprecipitation experiments were performed. In detail, the mammalian expression vector pcDNA-3, containing a FLAG-tagged mTOR cDNA sequence, was introduced into HEK-293 cells by standard Lipofectamine transfection. After 48 h, cells were washed twice with TBS and lysed in lysis buffer (40 mM Hepes, pH 7.5; 120 mM NaCl; 1 mM EDTA; 10 mM pyrophosphate; 10 mM glycerophosphate; 0.5 mM orthovanadate; 50 mM NaF; 0.3% (w/v) CHAPS / 1% (v/v) Triton-100; 1% (v/v) protease inhibitor mix) by shaking at 1000 rpm at 4°C for 20 minutes. After 20 minutes of centrifugation at 14.000 rpm and 4°C, the supernatant was collected, and total protein was determined by Bradford Assay. […] Beads were pelleted and washed 4 times with lysis buffer. Finally, beads were directly boiled after addition of an equal amount of SDS sample buffer for 5 minutes. Extracts were subjected to SDS-PAGE and immunoblotting.

C=CC[C@@H]1/C=C(\C)C[C@H](C)C[C@H](OC)[C@H]2O[C@@](O)(C(=O)C(=O)N3CCCC[C@H]3C(=O)O[C@H](/C(C)=C/[C@@H]3CC[C@@H](O)[C@H](OC)C3)[C@H](C)[C@@H](O)CC1=O)[C@H](C)C[C@@H]2OC [Tacrolimus]
interaction of mTOR with endogenous FKBP12, FKBP51 and FKBP52 (co-precipitation): No interaction was observed
